Assay [1] addresses T1, Arginase-1 (Homo sapiens, UniProt P05089).
T1 sequence (P05089 whole entry): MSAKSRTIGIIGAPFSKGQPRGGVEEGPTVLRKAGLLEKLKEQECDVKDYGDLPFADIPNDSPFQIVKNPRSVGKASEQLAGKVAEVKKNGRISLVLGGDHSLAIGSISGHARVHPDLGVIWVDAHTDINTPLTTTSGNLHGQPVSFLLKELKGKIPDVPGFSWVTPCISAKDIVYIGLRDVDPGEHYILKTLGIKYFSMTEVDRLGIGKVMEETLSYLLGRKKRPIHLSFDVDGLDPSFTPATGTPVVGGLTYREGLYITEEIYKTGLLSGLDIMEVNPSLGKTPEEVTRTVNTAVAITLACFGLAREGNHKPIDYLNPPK
As to the kind of experiment: Binding affinity to human arginase 1 using L-arginine as substrate by surface plasmon resonance assay. Background: Surface plasmon resonance follows binding to a sensor surface in real time, without labels.

Assay [2] concerns the target T2, Arginase (Plasmodium falciparum, UniProt Q8I384).
T2 sequence (Q8I384 whole entry): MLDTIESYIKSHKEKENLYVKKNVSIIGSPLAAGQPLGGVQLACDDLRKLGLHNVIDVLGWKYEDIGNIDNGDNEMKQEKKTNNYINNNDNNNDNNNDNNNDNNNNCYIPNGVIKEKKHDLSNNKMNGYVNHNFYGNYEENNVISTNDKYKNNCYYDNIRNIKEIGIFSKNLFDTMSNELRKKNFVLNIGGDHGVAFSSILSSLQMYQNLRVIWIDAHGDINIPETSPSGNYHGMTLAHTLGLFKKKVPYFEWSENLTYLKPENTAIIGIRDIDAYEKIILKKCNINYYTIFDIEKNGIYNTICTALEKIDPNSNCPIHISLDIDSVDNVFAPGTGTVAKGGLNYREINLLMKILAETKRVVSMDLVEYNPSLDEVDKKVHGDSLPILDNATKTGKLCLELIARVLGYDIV
As to the kind of experiment: Inhibition of Plasmodium falciparum arginase using L-arginine as substrate by colorimetric assay.

Assay [3] addresses T3, Arginase-2, mitochondrial (Homo sapiens, UniProt P78540).
T3 sequence (P78540 whole entry): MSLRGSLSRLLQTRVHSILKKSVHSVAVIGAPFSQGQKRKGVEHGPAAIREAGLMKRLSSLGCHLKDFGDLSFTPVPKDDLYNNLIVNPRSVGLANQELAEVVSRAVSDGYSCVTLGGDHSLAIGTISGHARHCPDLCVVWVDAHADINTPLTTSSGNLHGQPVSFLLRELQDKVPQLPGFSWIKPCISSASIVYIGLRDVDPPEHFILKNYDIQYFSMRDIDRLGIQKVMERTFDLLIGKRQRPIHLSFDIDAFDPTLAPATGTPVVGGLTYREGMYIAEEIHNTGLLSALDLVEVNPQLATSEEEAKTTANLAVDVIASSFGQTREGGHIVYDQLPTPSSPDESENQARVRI
As to the kind of experiment: Binding affinity to human arginase 2.

Assay [4] deals with T2, Arginase. As to the kind of experiment: Binding affinity to Plasmodium falciparum arginase.
Assay [5] has as its target T1, Arginase-1. As to the kind of experiment: Binding affinity to human arginase 1.

This is an account of results in ChEMBL document CHEMBL1811917 (J Med Chem, 2011).

Molecules are shown by their SMILES.

By Kd is commonly meant the equilibrium constant for the complex coming apart. Usually Ki stands for the dissociation constant of the complex between target and ligand, obtained from inhibition or displacement. The low end stands for tighter binding, the high end for weaker binding. The compound `CC(N)(CCCCB(O)O)C(=O)O` (racemic) had a Kd on Arginase-1 [1] of 0.88 µM. This compound also registered a Ki at Arginase [2] of 260 µM.

In the case of `NC(CCCCB(O)O)(C(=O)O)C(F)F` (racemic), the Kd on Arginase-1 [1] came to 34 µM.

On to `N[C@@H](CCCCB(O)O)C(=O)O`, for which the Ki in assay [3] was 0.0085 µM; at Arginase [2] it was 10 µM. The results for the Kd at Arginase [4], on Arginase-1 [1] and at Arginase-1 [5] were 11 µM, 0.018 µM and 0.005 µM, respectively.
